Tested on: PLD activity in differentiated HL-60 cells
Assay: PLD activity (PEt formation) in differentiated HL-60 cells
Assay type: cell-based, human
Conditions: differentiated HL-60 cells, biphasic response
Procedure: Cell cultures and differentiation. HL-60 cells were seeded in RPMI medium supplemented with 100 U/ml penicillin, 100 μg/ml streptomycin, and 10% fetal calf serum (Hyclone, Logan, Utah), incubated at 37° C. with 5% CO2 atmosphere in 250 ml flasks. Individual flasks containing ˜[…] next received dimethyl sulfoxide (DMSO) (1.12% v/v, 120 h) or retinoic acid (RA) (1 μM, 120 h) or phorbol myristate acetate (PMA) (20 nM, 48 h). Before performing binding assays, cells were washed twice in phosphate buffered saline (PBS), Ca^2+- and Mg^2+-free, enumerated and suspended at 20×10^6 cells/ml in Tris buffer (10 mM), pH 7.4 (Fiore, S. et al.(1992) J. Biol. Chem. 267:16168). Nitro blue tetrazolium reduction was performed to monitor induction of polymorphonuclear phenotype as in (Imaizumi, M. and Breitman, T. R. (1986) Blood 67:1273), and cell adherence was determined for induction of macrophage-like phenotype (Collins, S. J. (1987) Blood 70:1273). Human umbilical vein endothelial cells (HUVEC) maintained in culture third passage were obtained from Dr. M. Gimbrone (Brigham and Women's Hospital Department of Pathology).
PLD activity. Human PMN and HL-60 cells (50×10^6 cells/ml) prepared as above were incubated with ^3H-myristic acid or ^3H-palmitic acid (8 μCi/50×10^6 cells) for 40-60 min at 37° C. in PBS. Cell uptake ranged between 60-80% of added label, 7.1±4.2% (n=10; mean ±S.D.) and 32.6±10.3% (n=6; mean ±S.D.) into total phospholipid classes of PMN and HL-60 cells, respectively. Incubations were carried out at 37° C. (10 ×10^6 cells/ml PBS). […] At indicated times, incubations were stopped by adding 3.5 ml of ice cold CHCl3/MeOH (2/5, v/v) containing 1-^14C-arachidonic acid (5,000 cpm) used here as internal standard to quantitate extraction recoveries. […] Regions corresponding to PA, PEt, and internal standards were scraped and quantified by liquid scintillation counting. […] All values reported for PEt formation in Tables 4 and 5 were calculated by subtracting the dpm obtained in the presence of […]. […]

CCCCC[C@H](O)/C=C/C=C\C=C\C=C\[C@@H](O)[C@@H](O)CCCC(=O)O [LXA4, (5S, 6R, 15S)-trihydroxy-7E, 9E, 11Z, 13E-eicosatetraenoic acid]
concentration of apparent maximum, PEt formation: 10^−9 M
